{
  "source": "patent US8815577B2",
  "about": "“Assay electrode having immobilized lipid/protein layers, methods of making the same and methods of using the same for luminescence test measurements” (Meso Scale Technologies, LLC, priority 2001, dated 2014)",
  "key": {"EGFR in A431 cells [1]": {"system": "EGFR in A431 cells", "assay": "Measuring of EGFR activation dependent phosphorylation (prophetic)", "assay_type": "cell-based", "conditions": "membrane fragments of EGF-activated A431 cells", "text": "Activation of EGFR leads to its autophosphorylation. The cells are lysed as described in Example 1.2 to form cell membrane fragments (and, preferably, purified by centrifugation). The cell membrane fragments are immobilized on carbon electrodes integrated into the multi-well plates by passive adsorption or specific binding to a capture reagent previously immobilized on the electrode (e.g., wheat germ agglutinin, anti-EGFR, or another antibody specific for a membrane component, preferably, an epitope found on the cytoplasmic side) (as described in Example 1.3). The immobilized membrane fragments are treated with a buffered solution containing a STAG-labeled anti-phosphotyrosine antibody. In an alternate protocol, the membranes and antibody are premixed prior to addition of the membranes to the wells. A buffered tripropylamine solution is introduced to the well and ECL is induced and measured as described in Example 1.4."}, "EGFR in A431 cells [2]": {"system": "EGFR in A431 cells", "assay": "Measurement of EGFR activation dependent binding events (prophetic)", "assay_type": "cell-based", "conditions": "membrane fragments of EGF-activated A431 cells", "text": "Activation of the EGFR leads to autophosphorylation of EGFR followed by the sequential binding of shc to EGFR and grb-2 to shc. The cells are lysed as described in Example 1.2 to form cell membrane fragments (and, preferably, purified by centrifugation). The cell membrane fragments are immobilized on carbon electrodes integrated into the multi-well plates by passive adsorption (as described in Example 1.3) or specific binding to a capture reagent immobilized on the electrode (e.g., wheat germ agglutinin, anti-EGFR, or another antibody specific for a membrane component, preferably, an epitope found on the cytoplasmic side). The immobilized membrane fragments are treated with a buffered solution containing an STAG-labeled antibody directed against shc or grb-1. In an alternate protocol, the membranes and antibody are premixed prior to addition of the membranes to the wells. A buffered tripropylamine solution is introduced into the well and ECL is induced and measured as described in Example 1.4."}, "[3]": {"system": "tyrosine phosphatase activity / phosphotyrosine content in U2-OS cells", "assay": "Cellular phosphotyrosine content in fixed U2-OS cells grown on carbon electrode, ECL detection (tyrosine phosphatase inhibition)", "assay_type": "cell-based", "conditions": "1 mM, 30 minute incubation", "protocol": "U2-OS cells were grown in non-plasma treated Multi-Array plates using the growth conditions recommended by the American Type Culture Collection (ATCC reference number HTB-96). The plates were partially sterilized beforehand by illumination with a high energy UV light (Strata Linker Model 2400, Stratagene) set to deliver 9999 joules to the plate surface over the course of 5 minutes. Approximately 10,000 trypsinized cells were dispensed to each well of the 96 well plate in 100 μl of tissue culture media (see ATCC reference above) and incubated overnight in a cell culture incubator (at 37° C. in a humidified atmosphere containing 5% CO2) to promote attachment of the cells to the electrode surface.\nPer-Vanadate, a tyrosine phosphatase inhibitor was added to a some of the wells to give a final concentration of 1 mM in those wells. […]\nPhosphotyrosine containing proteins were detected by incubating the wells for one hour in 90 μl of PBS/FBS containing an anti-phosphotyrosine monoclonal antibody (100 ng/mL) and an anti-mouse secondary antibody (200 ng/mL) that was labeled with ruthenium-tris-bipyridine (ORI-TAG NHS Ester, IGEN International). […] ECL Assay Buffer was added (150 μl of OriGlo Plus, IGEN International) and the plate was analyzed using a Sector HTS instrument."}, "[4]": {"molecular_target": "melanocortin 5 receptor (MC5) (Homo sapiens, UniProt P33032)", "sequence (P33032 whole entry)": "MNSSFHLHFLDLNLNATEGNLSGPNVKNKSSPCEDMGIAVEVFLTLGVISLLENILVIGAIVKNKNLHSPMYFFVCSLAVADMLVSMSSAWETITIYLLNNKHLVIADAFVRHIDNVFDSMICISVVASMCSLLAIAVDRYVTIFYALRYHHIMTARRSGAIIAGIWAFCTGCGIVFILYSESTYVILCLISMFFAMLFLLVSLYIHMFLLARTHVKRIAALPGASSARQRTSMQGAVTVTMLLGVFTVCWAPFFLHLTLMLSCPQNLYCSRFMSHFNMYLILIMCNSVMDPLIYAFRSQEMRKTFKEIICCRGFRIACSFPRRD", "conditions": "at the higher concentrations", "experimental": "The membrane fragments came from HEK-293 cells that were transformed to express MC5.\nPure PHA-E was passively adsorbed onto the working electrode of plasma-treated Multi-Array 384-well plates by dispensing PHA-E (10 pmol per well) in PBS (5 μL per well) into the wells of the plate. Plates were sealed and incubated for 1 h at ambient temperature. Following the incubation, 3% BSA blocking solution was added (65 μL per well) and the plates were sealed and incubated for 1 h at room temperature. Plates were washed 4 times with PBS and dried. MC5 containing membrane fragments were immobilized in the plates using the procedure described in Example 2.3.1 except that in this case the immobilization occurred via lectin-sugar interactions.\nIn this Example, MC5 containing membrane fragments were immobilized on the electrode surface of plasma treated Multi-Array 96 well plates (Meso Scale Discovery) by capture on a passively adsorbed layer of pure Pokeweed Mitogen according to an immobilization protocol analogous to that described in the Example 2.3.2. […] The fluid in the wells was then removed and 150 μL of a buffered detergent-free solution of tripropylamine (MSD Assay Buffer T, surfactant free, Meso Scale Discovery) was added. ECL from the wells was measured using a Sector HTS plate reader."}},
  "data": [
    {"substance": "EGF: epidermal growth factor, ligand of EGFR (NSDSECPLSHDGYCLHDGVCMYIEALDKYACNCVVGYIGERCQYRDLKWWELR; not fully specified; Epidermal growth factor; UniProt P01133 971-1023, looked up)", "values": [
      {"measurement": "ECL signal (STAG-labeled anti-phosphotyrosine antibody) versus control A431 cells not exposed to EGF", "setting": "EGFR in A431 cells [1]", "value": "greater"},
      {"measurement": "ECL signal (STAG-labeled antibody against shc or grb-1) versus control A431 cells not exposed to EGF", "setting": "EGFR in A431 cells [2]", "value": "greater"}
    ]},
    {"substance": "Per-vanadate", "values": [
      {"measurement": "ECL signal after subtraction of background, relative to untreated cells", "setting": "[3]", "value": "more than three times higher"},
      {"measurement": "Average ECL signal (anti-phosphotyrosine antibody)", "setting": "[3]; n=4", "value": 7690.0}
    ]},
    {"substance": "[Nle4,D-Phe7]-α-melanocyte-stimulating hormone [NDP-α-MSH]", "values": [
      {"measurement": "inhibition of the binding of NDP-α-MSH-TAG to MC5", "setting": "[4]", "value": "almost complete"}
    ]}
  ]
}
